Results taken from patent US11412737B2, “Mixtures of beflubutamid or optically enriched forms thereof with a second herbicide” (FMC Corporation, priority 2016, dated 2022).
Where “and” joins values, the source holds several entries; their conditions need not be identical. Equal entries are not always repeated.

What was measured:
Yellow foxtail (SETLU) = assay: pre-emergence test, weed control; format: in vivo; conditions: pre-emergent, 28 DAT, (−)-BFL >95% e.e., rate g ai/ha by row: r6 62, r7 125, r8 125, r9 250, r10 445, r11 890, r12 45, r13 90, r14 62+125, r15 125+125, r16 62+250, r17 125+250, r18 62+445, r19 125+445, r20 62+890, r21 125+890, r22 62+45, r23 125+45, r24 62+90, r25 125+90
Outline: (§1)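 Pre-emergence; seeds in furrows in topsoil flats, watered before spraying. Moving sprayer, 30 gal/acre, nozzle 10.5 in. 4 flats per rate; greenhouse. Rated 21 DAT (wheat), 28 DAT (all species); 0–100 % control vs. untreated, mean of reps.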

[1] = test system: Marestail (horsetail) (ERICA); assay: post-emergence test, weed control; format: in vivo; conditions: post-emergent, 28 DAT, height 1 cm (3-5 rosette); rate g ai/ha by row: r25 94, r26 125, r27 188, r28 125, r29 250, r30 94+125, r31 125+125, r32 188+125, r33 94+250, r34 125+250, r35 188+250
[2] = test system: Chinese sprangletop (LEFCH); assay: post-emergence test, weed control; format: in vivo; conditions: post-emergent, 28 DAT, height ≤0.5 cm, rate g ai/ha by row: r7 94, r8 125, r9 188, r10 125, r11 250, r12 94+125, r13 125+125, r14 188+125, r15 94+250, r16 125+250, r17 188+250
Large crabgrass (DIGSA) = assay: pre-emergence test, weed control; format: in vivo; conditions: pre-emergent, 28 DAT; rate g ai/ha by row: r4 94, r5 50, r6 100, r7 52.5, r8 70, r9 94+52.5, r10 94+70, r11 50+52.5, r12 50+70, r13 100+52.5, r14 100+70
Outline: as §1

Rice flatsedge (CYPIR) = assay: pre-emergence test, weed control; format: in vivo; conditions: pre-emergent, 28 DAT; rate g ai/ha by row: r5 94, r6 125, r7 250, r8 3.28, r9 6.56, r10 13.1, r11 94+3.28, r12 94+6.56, r13 94+13.1, r14 125+3.28, r15 125+6.56, r16 125+13.1
Outline: as §1

Hemp sesbania (SEHE8) = assay: pre-emergence test, weed control; format: in vivo; conditions: pre-emergent, 28 DAT; BFL at 187.5 g, PYX at 90 g, combination of both
Outline: as §1

velvetleaf (IPOHE) = assay: pre-emergence test, weed control; format: in vivo; conditions: pre-emergent, 21 DAT, rate g ai/ha by row: r4 94, r5 125, r6 250, r7 125, r8 250, r9 500, r10 94+125, r11 125+125, r12 94+250, r13 125+250, r14 94+500, r15 125+500
beggerticks (BIDPI) = assay: post-emergence test, weed control; format: in vivo, Bidens pilosa; conditions: post-emergent, 28 DAT, COC 1%, rate g ai/ha by row: r5 94, r6 125, r7 250, r8 1.25, r9 2.5, r10 5, r11 94+1.25, r13 125+1.25, r15 94+2.5, r17 125+2.5, r19 94+5, r21 125+5
Experimental: (§2) Test compositions containing the test compounds were diluted with water to provide the appropriate test rate concentrations.
(§3) For post-emergence testing, seeds of each species for each rate of application of each herbicide solution were planted in 7.5 cm×7.5 cm plastic pots filled with potting soil. The seeds were germinated and the resulting plants were allowed to grow in a greenhouse until they reached a growth stage, such as height, suitable for testing. […] Pots of post-emergent treated plants were returned to the greenhouse and not watered for 24 hours after treatment. Thereafter they were regularly watered and fertilized for the duration of the test.
(§4) The control of weeds was evaluated in each experimental test at 21 for wheat and 28 days after treatment (DAT) for all species. […] The rating system is as follows in Table 1.

Canola (CN) = assay: post-emergence test, crop injury; format: in vivo; conditions: post-emergent, 28 DAT (Table 12 test)
Experimental: as §2
For post-emergence testing, seeds of each species for each rate of application of each herbicide solution were planted in 7.5 cm×7.5 cm plastic pots filled with potting soil. The seeds were germinated and the resulting plants were allowed to grow in a greenhouse until they reached a growth stage, such as height, suitable for testing. Treatments were applied using compressed air in a track spray chamber at 30 gallons/acre (280 L/ha) using a TeeJet 8001E nozzle at 40 psi (2.76 bars). Pots of post-emergent treated plants were returned to the greenhouse and not watered for 24 hours after treatment. Thereafter they were regularly watered and fertilized for the duration of the test.
The control of weeds was evaluated in each experimental test at 21 for wheat and 28 days after treatment (DAT) for all species. Data were analyzed using Minitab software at 95% confidence interval. The results, shown as an average of the replications, were compared with results observed in untreated control flats in the same tests. Percent control was determined by a method similar to the 0 to 100 rating system disclosed in “Research Methods in Weed Science,” 2nd ed., B. Truelove, Ed.; Southern Weed Science Society; Auburn University, Auburn, Ala., 1977. […]

Barley (B) = assay: post-emergence test, crop injury; format: in vivo; conditions: post-emergent, 28 DAT, BFL racemic, height at application 14 cm; rate g ai/ha by row: r7 94, r8 125, r9 188, r10 125, r11 250, r12 94+125, r13 125+125, r14 188+125, r15 94+250, r16 125+250, r17 188+250
Experimental: as §2, §3, §4

Row | Structure (SMILES) | percentage of weed control, SETLU (Yellow foxtail (SETLU); 125 g ai/ha) [%] | percentage of weed control, SETLU (Yellow foxtail (SETLU); 250 g ai/ha) [%] | percentage of weed control, ERICA [1] [%] | percentage of weed control, LEFCH ([2]; 125 g ai/ha) [%] | percentage of weed control, LEFCH ([2]; 250 g ai/ha) [%] | percentage of weed control, DIGSA (Large crabgrass (DIGSA)) [%] | percentage of weed control, Rice flatsedge CYPIR (Rice flatsedge (CYPIR)) | control of hemp sesbania (Hemp sesbania (SEHE8)) [%] | percentage of weed control, Morningglory IPOHE (velvetleaf (IPOHE); 94 g ai/ha) [%] | percentage of weed control, Morningglory IPOHE (velvetleaf (IPOHE); 250 g ai/ha) [%] | percentage of weed control, Beggerticks BIDPI (beggerticks (BIDPI); BFL at 94 g ai/ha) [%] | percentage of weed control, Beggerticks BIDPI (beggerticks (BIDPI); BFL at 125 g ai/ha) [%] | crop injury on canola (Canola (CN)) | percentage of crop injury, B (Barley (B)) [%]
1 | CC1(C)CON(Cc2ccc(Cl)cc2Cl)C1=O [DCI, 2-(2,4-dichlorophenyl)methyl-4,4-dimethyl-3-isoxazolidinone] | 75 | 96 | 0 | 89 | 79 | – | – | – | – | – | – | – | – | –
2 | CCC(Oc1ccc(F)c(C(F)(F)F)c1)C(=O)NCc1ccccc1 (racemic) [BFL, 2-[4-fluoro-3-(trifluoromethyl)phenoxy]-N-(phenylmethyl)butanamide] | – | – | – | – | – | 25 | 71% and 88% and 100% | 28 | 10 | 8 | 5 | 10 | significant crop injury | 1
